According to patent publication US20210324092A1, “MONOCLONAL ANTIBODY COMPOSITION FOR TREATMENT OF PHILADELPHIA CHROMOSOME POSITIVE ACUTE LYMPHOBLASTIC LEUKEMIA” (priority 2018, published 2021):

System: BCR-ABL+ pre-B cells
Test: Rescue of BCR-ABL+ pre-B cells from imatinib-induced cell death; cell cycle analysis (FIGS. 6 and 7)
Type: cell-based, mice
Conditions: for effect on BCR-ABL inhibitor (imatinib)-induced cell death: Imatinib 1 μM, IL7 2.5 ng/ml, CXCL12 100 ng/ml, AMD3100 10 μM

Molecule | effect on BCR-ABL inhibitor (imatinib)-induced cell death | cell cycling under imatinib treatment (imatinib in the presence of IL7)
c1cc(CN2CCCNCCNCCCNCC2)ccc1CN1CCCNCCNCCCNCC1 [AMD3100, reference compound] | did not affect imatinib treatment | 
TSLP: the ligand for CRLF2 | did not affect imatinib treatment | 
IL7: interleukin 7, a cytokine which is important for B and T cell development (protein, UniProt P13232 26-177, looked up) Interleukin-7: DCDIEGKDGKQYESVLMVSIDQLLDSMKEIGSNCLNNEFNFFKRHICDANKEGMFLFRAARKLRQFLKMNSTGDFDLHLLKVSEGTTILLNCTGQVKGRKPAALGEAQPTKSLEENKSLKEQKKLNDLCFLKRLLQEIKTCWNKILMGTKEH | counteracted the BCR-ABL inhibitor-induced cell death | restored cell cycling
